Measurements published in patent US20250263370A1 (Tay Therapeutics Limited, priority 2022, published 2025).
Values joined by “and” are separate entries in the source; they are usually repeats but may differ in a detail not shown here. Identical values can stand only once.

Assays:
[1] = Intrinsic clearance in liver microsomes, mouse; format: in vitro ADME; details: pH 7.4, Method 1, read-out: Half-Life (T1/2) (min), Mouse
How it was run: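 Compound at 1 μM (0.1–1% DMSO) incubated at 37 °C with mouse or rat liver microsomes (0.5 mg/mL protein) and 1 mM NADPH in PBS pH 7.4; samples taken up to 60 min and quenched in cold acetonitrile. LC-MS/MS of percent remaining gave half-life and CLint; no-NADPH controls run.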

[2] = test system: Col1a1, TGF-b1, MCP-1, IL-1b, IL-6, IL-17, TNF-a, and Timp1; test: Tissue biomarker mRNA by RT-PCR in ligated kidney of UUO rats; format: in vivo, rat
Source text: Serum for blood biochemistry analysis was collected into centrifuge tubes without coagulant four hours after final dosing. Blood plasma samples from group 3 was collected into tubes with K2EDTA four hours after final dosing. At the conclusion of the study (end of the 14-day period), animals were euthanized. Kidney tissue was collected four hours after final dosing. Ligated side kidney was divided into three copies ⅓ fix into 10% formalin for H&E analysis, ⅓ into RNA for PCR analysis of tissue biomarkers Col1a1, TGF-b1, MCP-1, IL-1b, IL-6, IL-17, TNF-a, and Timp1, and ⅓ for hydroxyproline assay analyzed by ELISA. RNA was extracted from tissue using the RNeasy mini kit (Qiagen). RNA concentration was measured using a NanoDrop One Spectrophotometer (ThermoFisher) and converted to cDNA using a High-Capacity RNA-to-cDNA kit (Invitrogen). RT-PCR was performed to measure levels of mRNA of different targets using TaqMan® Gene Expression Master Mix and TaqMan® probe/primer sets on a QuantStudio 6, Real-Time PCR System (ThermoFisher). Fold change in target gene expression was determined using the ΔΔCt method.

[3] = Plasma stability assay, human plasma; format: in vitro ADME; details: Method 1 (5 μM)
Experimental: From stock solution of compound in 10 mM DMSO, a working solution of 1 mM is prepared by diluting the compound in DMSO. To 398 μL of plasma pre-warmed at 37° C. for 15 minutes), 2 μL of working solution of compound is added, resulting in a final concentration of 5 μM (0.5% DMSO) for the compound. The sample is then incubated at 37° C. Aliquot is withdrawn at specified time-points (0, 15, 30, 60 and 120 mins). The reaction is stopped by addition of 450 μL cold acetonitrile containing internal standard (IS). […] Aliquots of the supernatant is analysed using LC-MS/MS. The percent remaining of the compound at each time point is calculated with respect to the control sample (0 min time-point).
A working solution of compound (500 μM) is prepared in DMSO (100%). To 735 μL of plasma, 15 μL of working solution of compound is added—resulting in a final concentration of 10 μM (2% DMSO) for the compound. The sample is then incubated at 37° C. Aliquot is withdrawn at time-points—0, 15, 30, 60, 90 and 120 mins. The reaction is stopped by using chilled acetonitrile containing internal standard (IS). The samples are centrifuged and the supernatants analyzed using LC-MS/MS. The percent remaining of the compound at each time point is calculated with respect to the control sample (0 min time-point).

CNC(=O)c1[nH]c(C(=O)NC2CCC2)cc1O[C@@H](C)c1ccccc1 (stereo in doubt) [Example 101, N^5-cyclobutyl-N^2-methyl-3-(1-phenylethoxy)-1H-pyrrole-2,5-dicarboxamide]
half-life at 1 μM [1]: 27 min
Col1a1 tissue RNA level relative to UUO + vehicle ([2]; 30 mg/kg BID, kidney): reduced levels
IL-1b tissue RNA level relative to UUO + vehicle ([2]; 30 mg/kg BID, kidney): reduced levels
IL-6 tissue RNA level relative to UUO + vehicle ([2]; 30 mg/kg BID, kidney): reduced levels
MCP-1 tissue RNA level relative to UUO + vehicle ([2]; 30 mg/kg BID, kidney): reduced levels
TGF-b1 tissue RNA level relative to UUO + vehicle ([2]; 30 mg/kg BID, kidney): reduced levels
Timp1 tissue RNA level relative to UUO + vehicle ([2]; 30 mg/kg BID, kidney): reduced levels
expression of IL-17 relative to UUO + vehicle ([2]; 30 mg/kg BID, kidney): limited effect
expression of TNF-α relative to UUO + vehicle ([2]; 30 mg/kg BID, kidney): limited effect
Col1a1 RNA level, Normalized Fold Change ([2]; 30 mg/kg, individual animals): 0.67 and 0.33 and 0.21 and 0.55 and 0.28 and 0.41 and 0.86 and 0.69
IL-1b RNA level, Normalized Fold Change ([2]; 30 mg/kg, individual animals): 0.43 and 0.18 and 0.29 and 0.69 and 0.55 and 0.27 and 0.56 and 0.67
IL-6 RNA level, Normalized Fold Change ([2]; 30 mg/kg, individual animals): 0.06 and 0.05 and 0.03 and 0.33 and 0.12 (2×) and 0.26 and 0.07
IL-17 RNA level, Normalized Fold Change ([2]; 30 mg/kg, individual animals): 0.79 and 0.22 and 0.24 and 2.09 and 1.81 and 0.54 and 0.70 and 0.94
MCP-1 RNA level, Normalized Fold Change ([2]; 30 mg/kg, individual animals): 0.34 and 0.26 and 0.32 and 0.53 and 0.42 and 0.27 and 0.68 and 0.61
TGF-b1 RNA level, Normalized Fold Change ([2]; 30 mg/kg, individual animals): 0.63 and 0.44 and 0.35 and 0.81 and 0.52 and 0.50 and 0.90 and 0.85
TNF-a RNA level, Normalized Fold Change ([2]; 30 mg/kg, individual animals): 0.90 and 0.48 and 0.32 and 1.53 and 1.00 and 0.69 and 0.94 and 1.55
Timp1 RNA level, Normalized Fold Change ([2]; 30 mg/kg, individual animals): 0.65 and 0.41 and 0.44 and 0.71 and 0.54 and 0.56 and 0.94 and 0.97
Col1a1 RNA level, Normalized Fold Change (Mean + SEM) ([2]; group mean, N 8): 0.50
IL-1b RNA level, Normalized Fold Change (Mean + SEM) ([2]; group mean, N 8): 0.46
IL-6 RNA level, Normalized Fold Change (Mean + SEM) ([2]; group mean, N 8): 0.13
IL-17 RNA level, Normalized Fold Change (Mean + SEM) ([2]; group mean, N 8): 0.92
MCP-1 RNA level, Normalized Fold Change (Mean + SEM) ([2]; group mean, N 8): 0.43
TGF-b1 RNA level, Normalized Fold Change (Mean + SEM) ([2]; group mean, N 8): 0.63
TNF-a RNA level, Normalized Fold Change (Mean + SEM) ([2]; group mean, N 8): 0.93
Timp1 RNA level, Normalized Fold Change (Mean + SEM) ([2]; group mean, N 8): 0.65
Plasma Stability (% remaining at 120 minutes), Human [3]: 93%
